Patent US6066635A, “Avrainvillamide, a cytotoxic marine natural product, and derivatives thereof” (University of California, San Diego, priority 1999, dated 2000)
In brackets after ≈: the same amount, converted by molar mass.

Columns and labels:
Format in all cases: cell-based
human colon HCT116 cells = assay: HCT-116 cytotoxicity assay; details: human colon HCT-116 cells; concentration required to inhibit cell proliferation by 50% vs untreated cells
Excerpt: (§1) Thus, the invention provides a method of treating a cancer patient by administering to the patient a compound of the invention in an amount sufficient to reduce or inhibit proliferation of cancer cells in the patient.

melanoma MALME-3M cells = assay: in vitro cytotoxicity at the National Cancer Institute (NCI 60 cell panel), melanoma; details: Homo sapiens, inhibition of cell proliferation by 50%
Excerpt: as §1

[1] = test system: breast cancer cells βT-549; assay: in vitro cytotoxicity at the National Cancer Institute (NCI 60 cell panel), breast cancer βT-549; details: inhibition of cell proliferation by 50%
Excerpt: as §1

[2] = test system: breast cancer cells T-47D; assay: in vitro cytotoxicity at the National Cancer Institute (NCI 60 cell panel), breast cancer T-47D; details: Homo sapiens, T47D; breast cancer T-47D (printed T-470); inhibition of cell proliferation by 50%
Excerpt: as §1

[3] = test system: tumor cell lines in the NCI 60 cell panel; assay: cytotoxic effect in the NCI 60 cell panel
Excerpt: as §1

## CC1(C)C=Cc2c(ccc3c2[N+]([O-])=C2C3=CC34NC(=O)C5(CCCN5C3=O)CC4C2(C)C)O1 (stereo not drawn) [Avrainvillamide]
Human colon HCT116 cells
  IC50: 2 µg/mL (≈ 4.49 µM)
Melanoma MALME-3M cells
  IC50: 53 nM
[1]
  IC50: 34 nM
[2]
  IC50: 72 nM
[3]; MALME-3M, βT-549 and T-470
  selective in vitro cytotoxicity towards melanoma and breast cancers: significant selective in vitro cytotoxicity
[3]; NCI 60 cell panel
  cytotoxic effect against a variety of tumor cell lines: dose dependent cytotoxic effect
